Assays:
OSCC cells = OSCC cells exposed in culture to palmitic acid, CD36+ cells by flow cytometry; format: cell-based, human; settings: 2 days, 0.4 mM palmitic acid
Experimental: All cells were cultured in a humidified incubator at 37° C. with 5% CO2. SCC-25 (ATCC^R CRL-168™) and patient-derived cells (VDH-00, VDH-01 and VDH-02) were grown in keratinocyte serum-free media (KSFM, GIBCO) supplemented with 5 μg ml^−1 penicillin/streptomycin, 0.025 mg ml^−1 bovine pituitary extract and 0.2 μg ml^−1 of hEGF. JHU-029 cells (The Johns Hopkins University) were grown in RPMI (GIBCO) supplemented with 5 μg ml^−1 penicillin/streptomycin and 10% foetal bovine serum (FBS; GIBCO). FaDu (ATCC^R HTB-43™) and Detroit (ATCC^R CCL138™) cells were grown in EMEM (LONZA) supplemented with 5 μg ml^−1 penicillin/streptomycin and 10% FBS (GIBCO). MCF-7 cells (ATCC^r HTB-22™) were grown in EMEM (LONZA) supplemented with 5 mg ml^−1 penicillin/streptomycin, 0.01 mg ml^−1 human recombinant insulin and 10% FBS (GIBCO). The 501mel human cell line (kindly provided by Dr. Claudia Wellbrock, Manchester Cancer Research Centre, The University of Manchester, UK) was grown in DMEM supplemented with 5 mg ml^−1 penicillin/streptomycin and 10% FBS (GIBCO). HNACFS (Head and Neck tumour associated fibroblasts) were grown in DMEM supplemented with 5 mg ml^−1 penicillin/streptomycin, 10% FBS (GIBCO) and 1× insulin transferrin selenium G supplement (Invitrogen). OP9 cells were cultured and differentiated to adipocytes as previously described (Wolins et al., 2006). […]

SCC25 tumour cells = assay: Transplants of palmitic acid-treated OSCC cells; format: in vivo, mouse; settings: cells treated in culture before transplant
Experimental: NOD scid gamma (NSG) (NOD.Cg-Prkdc^scid Il2rg^tm1Wjl/SzJ) mice were purchased from Charles River and crossed in-house. All mice were housed under a regimen of 12 h light/12 h dark cycles and SPF conditions, and all procedures were evaluated and approved by the CEEA (Ethical Committee for Animal Experimentation) from the Government of Catalunya. For establishing patient-derived tumour cells, tumours were implanted subcutaneously into NOD scid gamma mice immediately after tumour resection from the patient. Once the tumours had grown, they were collected, disaggregated, and tumour cells were FACS sorted and cultured as described below. For 5-bromo-2-deoxyuridine (BrdU) labelling experiments, mice were injected intraperitoneally with a single dose of 100 μg g^−1 BrdU (Invitrogen) and then analysed at 24 h. SCC intra-tongue injection was performed as previously described (Oskarsson et al., 2014; Nieman et al., 2011). Briefly, mice were anesthetized by intraperitoneal injection with a mixture of 50 mg per kg of ketamine and 0.5 mg per kg of medetomidin, and SCC cells resuspended in 30 μl PBS were injected into each mouse tongue with a BD ultra-fine 6 mm needle. For intravenous cell injection, mice were anesthetized with continuous administration of isofluorane gas and were injected by retro-orbital injection with 100,000 cells in 100 μl PBS. Mice were monitored for the luciferase bioluminescent signal immediately after injection (T0) and once weekly thereafter with a Xenogen IVIS Imaging System-100 (Caliper Life Sciences). Briefly, animals were injected by retro-orbital injection with 50 μl of D-luciferin (Promega) diluted in 1×PBS at 5 mg ml^−1. Continuous administration of isofluorane gas was provided to ensure anesthetizing animals during imaging. Data was quantified with the Living Image software version 4.4 (Caliper Life Sciences). Quantifications were calculated with unsaturated pixels. Color scale minimum and maximum values are shown in pictures.
All cells were cultured in a humidified incubator at 37° C. with 5% CO2. […]

OSCC cell lines = assay: shRNA-mediated CD36 depletion in orthotopic OSCC xenografts; format: in vivo, mouse; settings: FaDu cells
Experimental: NOD scid gamma (NSG) (NOD.Cg-Prkdc^scid Il2rg^tm1Wjl/SzJ) mice were purchased from Charles River and crossed in-house. All mice were housed under a regimen of 12 h light/12 h dark cycles and SPF conditions, and all procedures were evaluated and approved by the CEEA (Ethical Committee for Animal Experimentation) from the Government of Catalunya. For establishing patient-derived tumour cells, tumours were implanted subcutaneously into NOD scid gamma mice immediately after tumour resection from the patient. Once the tumours had grown, they were collected, disaggregated, and tumour cells were FACS sorted and cultured as described below. For 5-bromo-2-deoxyuridine (BrdU) labelling experiments, mice were injected intraperitoneally with a single dose of 100 μg g^−1 BrdU (Invitrogen) and then analysed at 24 h. SCC intra-tongue injection was performed as previously described (Oskarsson et al., 2014; Nieman et al., 2011). […] Mice were monitored for the luciferase bioluminescent signal immediately after injection (T0) and once weekly thereafter with a Xenogen IVIS Imaging System-100 (Caliper Life Sciences). […] Data was quantified with the Living Image software version 4.4 (Caliper Life Sciences). Quantifications were calculated with unsaturated pixels. […]

Row | Molecule | percentage of CD36+ cells in culture (OSCC cells) | inoculated mice with lung metastasis (SCC25 tumour cells) [%] | primary tumour growth (SCC25 tumour cells) | size and frequency of the LN metastasis (SCC25 tumour cells) | lung metastasis (ability to colonize the lungs) (OSCC cell lines)
1 | CCCCCCCCCCCCCCCC(=O)O [PA, palmitic acid] | robustly induced | 10 | without any effect | significantly boosted | 
2 | shRNACD36 #99: lentiviral shRNA targeting CD36 (Sigma Aldrich), SEQ ID NO: 2 (CCGACGTTAATCTGAAAGGA) |  |  |  |  | absent

Reference: patent US11535680B2, “Targeting metastasis stem cells through a fatty acid receptor (CD36)” (FUNDACIÓ INSTITUT DE RECERCA BIOMÈDICA (IRB BARCELONA), priority 2015, dated 2022)
